Test results published in BindingDB's records for PubMed 7903385 (Creighton University, 1993).

Target: T1, Alpha-2A adrenergic receptor (Sus scrofa, UniProt P18871)
T1 sequence (P18871 whole entry): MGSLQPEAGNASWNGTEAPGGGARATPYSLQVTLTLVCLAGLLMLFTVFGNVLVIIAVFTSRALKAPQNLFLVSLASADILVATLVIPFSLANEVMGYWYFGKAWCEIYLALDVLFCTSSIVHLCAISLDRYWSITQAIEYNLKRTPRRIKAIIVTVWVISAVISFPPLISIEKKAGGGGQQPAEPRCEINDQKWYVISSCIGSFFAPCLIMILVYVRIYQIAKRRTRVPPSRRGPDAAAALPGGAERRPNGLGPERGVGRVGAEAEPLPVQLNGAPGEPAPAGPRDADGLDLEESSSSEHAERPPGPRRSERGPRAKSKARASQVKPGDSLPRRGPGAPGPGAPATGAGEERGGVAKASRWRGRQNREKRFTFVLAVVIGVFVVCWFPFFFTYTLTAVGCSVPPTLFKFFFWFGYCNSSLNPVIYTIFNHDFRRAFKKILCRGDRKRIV

C=Cc1sc2ccc(Cl)c3c2c1CN(C)CC3 [SKF 104856]
Ki: 0.0545 µM
